Legend:
serum nucleases = assay: Protection of ISS-DNA from serum nucleases (gel electrophoresis); format: in vitro ADME; conditions: 10% serum, 12 hours
Description: The stimuli responsive release of peptides from the PCMs due to the presence of GSH was investigated to determine if the PCMs will release peptide antigens after phagocytosis. The PCMs were incubated with different concentrations of GSH, for 24 hours in 50 mM pH 7.4 PBS buffer, and then analyzed by HPLC to determine the release of peptides. […] Incubation of the PCMs with 10 mM GSH (intracellular levels) induces the release of 71% of peptide, whereas incubation of the PCMs with just buffer causes the release of only 10% of peptides. B. GSH sensitive DNA release. The ability of the PCMs to protect encapsulated ISS-DNA from degradation by serum nucleases was investigated. PCMs were synthesized (as described above) and incubated with 10% serum for 12 hours, these PCMs were then examined by gel electrophoresis to determine the stability of the encapsulated ISS-DNA. As a control, ISS-DNA by itself was incubated with serum. […] C. […] A key advantage of the PCM strategy is that it generates a crosslinked delivery system. This crosslinking should stabilize the PCMs in vivo. The stability of the PCMs to decomposition was investigated by mixing the negatively charged polymer, poly(vinyl sulfate) (PVS) with the PCMs, this mixture was then analyzed by gel electrophoresis to determine the quantity of ISS-DNA displaced by the PVS. […]

[1] = cited from earlier work
[2] = Hydrolysis of polyketal copolymers in buffered water (1H NMR); format: physicochemical; conditions: buffer
Description: The molecular weight of the polyketal copolymers was determined by gel permeation chromatography (GPC) using a Shimadzu system (Kyoto, Japan) equipped with a UV detector. THF was used as the mobile phase at a flow rate of 1 mL/min. Polystyrene standards (Peak Mw=1060, 2970, and 10680) from Polymer Laboratories (Amherst, Mass.) were used to establish a molecular weight calibration curve. The hydrolysis of the polyketal copolymers was measured in buffered water at pH values of 1.0 (0.1M HCL), 4.5 (100 mM AcOH) and 7.4 (100 mM) at 37° C. Briefly, 20 mg of the polymer samples were placed in a 5 ml vial, 1 mL of buffer solution was added to each vial, and mixed with a magnetic stir bar. At specific time points, 1 mL of CDCl3 was added to each vial and shaken vigorously, the CDCl3 phase was isolated and analyzed by ^1H NMR, to determine the percent hydrolysis the of ketal linkages in polyketal copolymer.

Compound	Log P of diol [1]	Estimated half life at pH 7.4 ([2]; pH 7.4)	Half life at pH 4.5 [2]	also measured
5-TCCATGACGTTCCTGACGTT-3 [ISS-DNA]				Stability of ISS-DNA to serum nucleases (serum nucleases): completely hydrolyzed
OCC1CCC(CO)CC1 (stereo not drawn) [1,4-cyclohexanedimethanol]	1.46			
OCCCCCCCCO [1,8-octanediol]	1.75			
poly(cyclohexane-1,4-diyl acetone dimethylene ketal-co-1,5-pentane-acetone dimethylene ketal [PK3]		39 days		Hydrolysis half life at pH 7.4 (in words) ([2]; pH 7.4): several weeks
poly(cyclohexane-1,4-diyl acetone dimethylene ketal-co-1,6-hexane-acetone dimethylene ketal) [PK5]		53 days	4.4 days	
poly(cyclohexane-1,4-diyl acetone dimethylene ketal-co-1,8-octane-acetone dimethylene ketal) [PK6]		360 days	18.6 days	
